Assay: xn = mol fraction of the nth substance listed
Conditions: Liquid; for viscosity: 100.5 kPa; for mass density: 101 kPa

CCOC(=O)c1ccccc1 [ethyl benzoate] + CCO
Conditions | mass density, 288.15 K [kg/m3] | mass density, 298.15 K [kg/m3] | mass density, 308.15 K [kg/m3] | mass density, 318.15 K [kg/m3] | viscosity, 288.15 K [mPa·s] | viscosity, 298.15 K [mPa·s] | viscosity, 308.15 K [mPa·s] | viscosity, 318.15 K [mPa·s]
x1 = 0.05 | 824.59 | 815.81 | 806.92 | 797.88 | 1.342 | 1.108 | 0.926 | 0.778
x1 = 0.1 | 851.02 | 842.08 | 833.03 | 823.84 | 1.36 | 1.123 | 0.938 | 0.793
x1 = 0.15 | 874.07 | 865.01 | 855.84 | 846.52 | 1.388 | 1.148 | 0.959 | 0.812
x1 = 0.2 | 894.37 | 885.22 | 875.95 | 866.54 | 1.425 | 1.176 | 0.984 | 0.833
x1 = 0.25 | 912.35 | 903.11 | 893.77 | 884.29 | 1.465 | 1.208 | 1.012 | 0.857
x1 = 0.3 | 928.37 | 919.07 | 909.68 | 900.15 | 1.51 | 1.244 | 1.042 | 0.881
x1 = 0.35 | 942.79 | 933.45 | 924.02 | 914.45 | 1.557 | 1.282 | 1.072 | 0.908
x1 = 0.4 | 955.85 | 946.47 | 937 | 927.41 | 1.607 | 1.321 | 1.105 | 0.935
x1 = 0.45 | 967.71 | 958.3 | 948.81 | 939.2 | 1.661 | 1.363 | 1.138 | 0.964
x1 = 0.5 | 978.51 | 969.07 | 959.57 | 949.95 | 1.715 | 1.405 | 1.173 | 0.993
x1 = 0.55 | 988.43 | 978.97 | 969.46 | 959.84 | 1.773 | 1.449 | 1.209 | 1.024
x1 = 0.6 | 997.48 | 988.07 | 978.54 | 968.93 | 1.833 | 1.496 | 1.247 | 1.055
x1 = 0.65 | 1005.91 | 996.46 | 986.94 | 977.35 | 1.895 | 1.544 | 1.286 | 1.089
x1 = 0.7 | 1013.67 | 1004.22 | 994.7 | 985.12 | 1.959 | 1.595 | 1.326 | 1.124
x1 = 0.75 | 1020.94 | 1011.5 | 1002.01 | 992.45 | 2.028 | 1.649 | 1.37 | 1.159
x1 = 0.8 | 1027.63 | 1018.2 | 1008.72 | 999.19 | 2.099 | 1.705 | 1.416 | 1.198
x1 = 0.85 | 1033.99 | 1024.57 | 1015.13 | 1005.64 | 2.178 | 1.767 | 1.465 | 1.241
x1 = 0.9 | 1039.87 | 1030.48 | 1021.06 | 1011.62 | 2.267 | 1.836 | 1.521 | 1.288
x1 = 0.95 | 1045.45 | 1036.09 | 1026.72 | 1017.33 | 2.373 | 1.917 | 1.582 | 1.335
x1 = 1 | 1050.78 | 1041.42 | 1032.07 | 1022.73 | 2.444 | 1.971 | 1.624 | 1.368

Reference: the NIST ThermoML archive (doi:10.1021/je050389b)
